Data published in ChEMBL document CHEMBL5346923, “Novel pyridinium cationic pleuromutilin analogues overcoming bacterial multidrug resistance” (Eur J Med Chem, 2023).
Converted amounts (≈) assume the structure as drawn. The source made the active and inactive calls. No cut-off for these calls is given here.

Key:
Staphylococcus aureus [1] = experiment: Antibacterial activity against methicillin-resistant Staphylococcus aureus ATCC 43300 assessed as inhibition of bacterial growth measured after 24 hrs by MH broth based assay; assay type: functional
Staphylococcus aureus [2] = experiment: Antibacterial activity against clinical isolate Staphylococcus aureus harbouring IsaA, cfr and erm A gene assessed as inhibition of bacterial growth measured after 24 hrs by MH broth based assay; assay type: functional
Staphylococcus aureus [3] = experiment: Antibacterial activity against tiamulin-resistant/methicillin-resistant Staphylococcus aureus assessed as inhibition of bacterial growth; assay type: functional
Staphylococcus aureus [4] = experiment: Antibacterial activity against methicillin-resistant Staphylococcus aureus assessed as resistance development by measuring fold increase in MIC measured after 24 days; assay type: functional; details: time 24 day
Staphylococcus aureus [5] = experiment: Antibacterial activity against compound-resistant/methicillin-resistant Staphylococcus aureus assessed as inhibition of bacterial growth; assay type: functional
Streptococcus parasuis [6] = experiment: Antibacterial activity against clinical isolate Streptococcus parasuis harbouring InuD gene assessed as inhibition of bacterial growth measured after 24 hrs by MH broth based assay; assay type: functional
Staphylococcus aureus [7] = experiment: Antibacterial activity against clinical isolate Staphylococcus aureus harbouring tet38 gene assessed as inhibition of bacterial growth measured after 24 hrs by MH broth based assay; assay type: functional
Staphylococcus aureus [8] = experiment: Antibacterial activity against multi-drug resistant Staphylococcus aureus sa1 infected in BABL/C mouse assessed as reduction in bacterial load in lungs at 20 mg/kg, ip measured after 2 days; assay type: functional; details: time 2 day
Escherichia coli [9] = experiment: Antibacterial activity against clinical isolate Escherichia coli harbouring NDM-17 gene assessed as inhibition of bacterial growth measured after 24 hrs by MH broth based assay; assay type: functional
Bacillus subtilis = experiment: Antibacterial activity against Bacillus subtilis ATCC 6633 assessed as inhibition of bacterial growth measured after 24 hrs by MH broth based assay; assay type: functional
Staphylococcus aureus [10] = experiment: Antibacterial activity against clinical isolate Staphylococcus aureus harbouring IsaE gene assessed as inhibition of bacterial growth measured after 24 hrs by MH broth based assay; assay type: functional
[11] = system: Streptococcus hyovaginalis; experiment: Antibacterial activity against clinical isolate Streptococcus hyovaginalis harbouring IsaE and optrA gene assessed as inhibition of bacterial growth measured after 24 hrs by MH broth based assay; assay type: functional
Escherichia coli [12] = experiment: Antibacterial activity against Escherichia coli MG1655 assessed as inhibition of bacterial growth measured after 24 hrs by MH broth based assay; assay type: functional
Staphylococcus aureus [13] = experiment: Antibacterial activity against multi-drug resistant Staphylococcus aureus sa1 infected in BABL/C mouse assessed as lymphocyte infiltration at 20 mg/kg, ip; assay type: functional, organism-based
Staphylococcus aureus [14] = experiment: Antibacterial activity against clinical isolate Staphylococcus aureus harbouring cfr and erm C gene assessed as inhibition of bacterial growth measured after 24 hrs by MH broth based assay; assay type: functional
Klebsiella pneumoniae [15] = experiment: Antibacterial activity against clinical isolate Klebsiella pneumoniae harbouring blaKpc gene assessed as inhibition of bacterial growth measured after 24 hrs by MH broth based assay; assay type: functional
Enterococcus hirae = experiment: Antibacterial activity against clinical isolate Enterococcus hirae assessed as inhibition of bacterial growth measured after 24 hrs by MH broth based assay; assay type: functional
Proteus = experiment: Antibacterial activity against Proteus CMCC (B) 49027 assessed as inhibition of bacterial growth measured after 24 hrs by MH broth based assay; assay type: functional
[16] = system: Staphylococcus epidermidis; experiment: Antibacterial activity against methicillin-resistant Staphylococcus epidermidis ATCC 51625 assessed as inhibition of bacterial growth measured after 24 hrs by MH broth based assay; assay type: functional
Enterococcus lactis = experiment: Antibacterial activity against clinical isolate Enterococcus lactis assessed as inhibition of bacterial growth measured after 24 hrs by MH broth based assay; assay type: functional
Staphylococcus aureus [17] = experiment: Antibacterial activity against clinical isolate Staphylococcus aureus harbouring cfr gene assessed as inhibition of bacterial growth measured after 24 hrs by MH broth based assay; assay type: functional
[18] = system: Streptococcus hyovaginalis; experiment: Antibacterial activity against clinical isolate Streptococcus hyovaginalis harbouring ErmB and tetO gene assessed as inhibition of bacterial growth measured after 24 hrs by MH broth based assay; assay type: functional
Staphylococcus aureus [19] = experiment: Antibacterial activity against multi-drug resistant Staphylococcus aureus sa1 infected in BABL/C mouse assessed as appearance of alveolar septa thickening at 20 to 40 mg/kg, ip; assay type: functional, organism-based; details: dose 20-40 mg/kg
Klebsiella pneumoniae [20] = experiment: Antibacterial activity against clinical isolate Klebsiella pneumoniae harbouring mcr-8 gene assessed as inhibition of bacterial growth measured after 24 hrs by MH broth based assay; assay type: functional
Streptococcus pneumoniae [21] = experiment: Antibacterial activity against Streptococcus pneumoniae ATCC 49619 assessed as inhibition of bacterial growth measured after 24 hrs by MH broth based assay; assay type: functional
Enterococcus = experiment: Antibacterial activity against vancomycin-resistant Enterococcus ATCC 700221 assessed as inhibition of bacterial growth measured after 24 hrs by MH broth based assay; assay type: functional
Staphylococcus aureus [22] = experiment: Antibacterial activity against clinical isolate multi-drug resistant Staphylococcus aureus sal assessed as reduction in log10 CFU at 6 times of MIC measured after 8 hrs by time-kill assay; assay type: functional
Staphylococcus aureus [23] = experiment: Antibacterial activity against clinical isolate Staphylococcus aureus harbouring blaZ gene assessed as inhibition of bacterial growth measured after 24 hrs by MH broth based assay; assay type: functional
Staphylococcus aureus [24] = experiment: Antibacterial activity against clinical isolate Staphylococcus aureus harbouring erm C gene assessed as inhibition of bacterial growth measured after 24 hrs by MH broth based assay; assay type: functional
Streptococcus suis = experiment: Antibacterial activity against clinical isolate Streptococcus suis harbouring IsaE and ErmA gene assessed as inhibition of bacterial growth measured after 24 hrs by MH broth based assay; assay type: functional
Staphylococcus aureus [25] = experiment: Antibacterial activity against multi-drug resistant Staphylococcus aureus sa1 infected in BABL/C mouse assessed as appearance of congested pulmonary capillaries at 20 mg/kg, ip; assay type: functional, organism-based
Escherichia coli [26] = experiment: Antibacterial activity against Escherichia coli ATCC 25922 assessed as inhibition of bacterial growth measured after 24 hrs by MH broth based assay; assay type: functional
Staphylococcus aureus [27] = experiment: Antibacterial activity against multi-drug resistant Staphylococcus aureus sa1 infected in ip dosed BABL/C mouse assessed as survival rate measured upto 7 days; assay type: functional; details: sa1, 168 h, time <= 7 day
Staphylococcus aureus [28] = experiment: Antibacterial activity against Staphylococcus aureus ATCC 29213 assessed as inhibition of bacterial division at 1 to 4 times of MIC by SEM analysis; assay type: functional, organism-based
Staphylococcus aureus [29] = experiment: Antibacterial activity against multi-drug resistant Staphylococcus aureus sa1 infected in BABL/C mouse assessed as survival rate at 40 mg/kg, ip measured upto 7 days; assay type: functional; details: sa1, 168 h, time <= 7 day
Streptococcus parasuis [30] = experiment: Antibacterial activity against clinical isolate Streptococcus parasuis harbouring optrA gene assessed as inhibition of bacterial growth measured after 24 hrs by MH broth based assay; assay type: functional
Staphylococcus aureus [31] = experiment: Antibacterial activity against clinical isolate multi-drug resistant Staphylococcus aureus sal assessed as inhibition of bacterial growth; assay type: functional
Staphylococcus aureus [32] = experiment: Antibacterial activity against multi-drug resistant Staphylococcus aureus sa1 infected in BABL/C mouse assessed as neutrophil infiltration at 20 mg/kg, ip; assay type: functional, organism-based
Staphylococcus aureus [33] = experiment: Antibacterial activity against multi-drug resistant Staphylococcus aureus sa1 infected in BABL/C mouse assessed as reduction in bacterial load in lungs at 40 mg/kg, ip measured after 2 days; assay type: functional; details: time 2 day
Streptococcus pneumoniae [34] = experiment: Antibacterial activity against clinical isolate Streptococcus pneumoniae harbouring ermB gene assessed as inhibition of bacterial growth measured after 24 hrs by MH broth based assay; assay type: functional
Klebsiella pneumoniae [35] = experiment: Antibacterial activity against Klebsiella pneumonia CMCC (B) 46117 assessed as inhibition of bacterial growth measured after 24 hrs by MH broth based assay; assay type: functional
Aerococcus viridans = experiment: Antibacterial activity against clinical isolate Aerococcus viridans harbouring optrA and ErmA gene assessed as inhibition of bacterial growth measured after 24 hrs by MH broth based assay; assay type: functional
Staphylococcus aureus [36] = experiment: Antibacterial activity against Staphylococcus aureus ATCC 29213 assessed as inhibition of bacterial growth measured after 24 hrs by MH broth based assay; assay type: functional
Escherichia coli [37] = experiment: Antibacterial activity against Escherichia coli MG1655 harbouring acrB gene assessed as inhibition of bacterial growth measured after 24 hrs by MH broth based assay; assay type: functional
Staphylococcus aureus [38] = experiment: Antibacterial activity against clinical isolate Staphylococcus aureus harbouring ArlS, norA and MgrA gene assessed as inhibition of bacterial growth measured after 24 hrs by MH broth based assay; assay type: functional

C=C[C@]1(C)C[C@@H](OC(=O)CSCCN(CC)CC)[C@]2(C)[C@H](C)CC[C@]3(CCC(=O)[C@H]32)[C@@H](C)[C@@H]1O [TIAMULIN]
MIC (Staphylococcus aureus [1]): 0.5 µg/mL (≈ 1.01 µM)
MIC (Staphylococcus aureus [2]): 128 µg/mL (≈ 259 µM)
MIC (Staphylococcus aureus [3]): 64 µg/mL (≈ 130 µM)
fold change (FC) (Staphylococcus aureus [4]): 64
MIC (Staphylococcus aureus [5]): 1 µg/mL (≈ 2.03 µM)
MIC (Streptococcus parasuis [6]): 64 µg/mL (≈ 130 µM)
MIC (Staphylococcus aureus [7]): 0.25 µg/mL (≈ 0.506 µM)
Activity (Staphylococcus aureus [8]): 1.35 log10CFU/ml
MIC (Escherichia coli [9]): 64 µg/mL (≈ 130 µM)
MIC (Bacillus subtilis): 64 µg/mL (≈ 130 µM)
MIC (Staphylococcus aureus [10]): 128 µg/mL (≈ 259 µM)
MIC [11]: 64 µg/mL (≈ 130 µM)
MIC (Escherichia coli [12]): 64 µg/mL (≈ 130 µM)
Activity (Staphylococcus aureus [13]): Active
MIC (Staphylococcus aureus [14]): 128 µg/mL (≈ 259 µM)
MIC (Klebsiella pneumoniae [15]): 32 µg/mL (≈ 64.8 µM)
MIC (Enterococcus hirae): 8 µg/mL (≈ 16.2 µM)
MIC (Proteus): > 64 µg/mL
MIC [16]: 0.25 µg/mL (≈ 0.506 µM)
MIC (Enterococcus lactis): 128 µg/mL (≈ 259 µM)
MIC (Staphylococcus aureus [17]): 128 µg/mL (≈ 259 µM)
MIC [18]: 64 µg/mL (≈ 130 µM)
Activity (Staphylococcus aureus [19]): Active
MIC (Klebsiella pneumoniae [20]): 16 µg/mL (≈ 32.4 µM)
MIC (Streptococcus pneumoniae [21]): 0.063 µg/mL (≈ 0.128 µM)
MIC (Enterococcus): 64 µg/mL (≈ 130 µM)
Activity (Staphylococcus aureus [22]): Active
MIC (Staphylococcus aureus [23]): 0.5 µg/mL (≈ 1.01 µM)
MIC (Staphylococcus aureus [24]): 32 µg/mL (≈ 64.8 µM)
MIC (Streptococcus suis): 64 µg/mL (≈ 130 µM)
Activity (Staphylococcus aureus [25]): Active
MIC (Escherichia coli [26]): > 64 µg/mL
ED50 (Staphylococcus aureus [27]): 47.5 mg/kg
Activity (Staphylococcus aureus [28]): Active
survival at 40 mg/kg (Staphylococcus aureus [29]): 50%
MIC (Streptococcus parasuis [30]): 64 µg/mL (≈ 130 µM)
MIC (Staphylococcus aureus [31]): 128 µg/mL (≈ 259 µM)
Activity (Staphylococcus aureus [32]): Active
Activity (Staphylococcus aureus [33]): 1.94 log10CFU/ml
MIC (Streptococcus pneumoniae [34]): 32 µg/mL (≈ 64.8 µM)
MIC (Klebsiella pneumoniae [35]): 16 µg/mL (≈ 32.4 µM)
MIC (Aerococcus viridans): 32 µg/mL (≈ 64.8 µM)
MIC (Staphylococcus aureus [36]): 0.5 µg/mL (≈ 1.01 µM)
MIC (Escherichia coli [37]): 2 µg/mL (≈ 4.05 µM)
MIC (Staphylococcus aureus [38]): 0.5 µg/mL (≈ 1.01 µM)

C=C[C@]1(C)C[C@@H](OC(=O)CSc2cc[n+](CC(=O)N(Cc3ccccc3)Cc3ccccc3)cc2)[C@]2(C)[C@H](C)CC[C@]3(CCC(=O)[C@H]32)[C@@H](C)[C@@H]1O.[I-]
MIC (Staphylococcus aureus [1]): 0.25 µg/mL
MIC (Bacillus subtilis): 16 µg/mL
MIC (Escherichia coli [12]): 64 µg/mL
MIC (Proteus): > 64 µg/mL
MIC [16]: 0.063 µg/mL
MIC (Streptococcus pneumoniae [21]): < 0.031 µg/mL
MIC (Enterococcus): 64 µg/mL
MIC (Escherichia coli [26]): 64 µg/mL
MIC (Klebsiella pneumoniae [35]): 32 µg/mL
MIC (Staphylococcus aureus [36]): 0.25 µg/mL
MIC (Escherichia coli [37]): 4 µg/mL
